From ChEMBL document CHEMBL5465560, “Selectivity Literature for EUbOPEN Chemogenomic Library” (2024) come the findings set out here.

Assay [1] concerns the target Calcium/calmodulin-dependent protein kinase type 1G (Homo sapiens) (UniProt Q96NX5). Nature of the assay: Selectivity interaction (Kinase panel (Z-LYTE Assay)) EUB0001632a CAMK1G. To be noted: at 10 µM.
Assay [2] deals with T1, Cyclin-dependent kinase 11A (Homo sapiens) (UniProt Q9UQ88).
T1 sequence (whole entry): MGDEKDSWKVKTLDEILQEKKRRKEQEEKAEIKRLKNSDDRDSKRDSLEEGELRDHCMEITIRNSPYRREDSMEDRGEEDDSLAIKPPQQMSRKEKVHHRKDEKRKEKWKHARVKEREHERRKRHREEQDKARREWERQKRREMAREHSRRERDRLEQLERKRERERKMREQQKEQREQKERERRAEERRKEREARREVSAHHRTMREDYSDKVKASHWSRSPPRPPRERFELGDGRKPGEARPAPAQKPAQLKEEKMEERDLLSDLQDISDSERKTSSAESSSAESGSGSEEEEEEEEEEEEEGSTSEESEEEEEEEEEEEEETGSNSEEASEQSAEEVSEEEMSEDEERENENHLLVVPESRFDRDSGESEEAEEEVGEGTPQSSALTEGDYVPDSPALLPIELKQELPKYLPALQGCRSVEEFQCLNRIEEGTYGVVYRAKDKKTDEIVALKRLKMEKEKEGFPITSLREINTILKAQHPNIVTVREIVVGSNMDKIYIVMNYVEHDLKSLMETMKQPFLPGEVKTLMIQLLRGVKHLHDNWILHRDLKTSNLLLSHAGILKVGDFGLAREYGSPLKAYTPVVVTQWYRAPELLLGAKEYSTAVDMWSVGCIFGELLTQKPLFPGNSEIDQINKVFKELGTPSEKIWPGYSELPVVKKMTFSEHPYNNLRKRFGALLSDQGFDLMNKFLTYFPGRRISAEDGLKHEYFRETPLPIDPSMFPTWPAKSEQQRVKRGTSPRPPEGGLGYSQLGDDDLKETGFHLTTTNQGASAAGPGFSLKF
Nature of the assay: Selectivity interaction (KinomeScan (DiscoverX)) EUB0001619a CDK11A. The note with it: at 1 µM.

The target in assay [3] is Protein kinase C theta type (Homo sapiens, UniProt Q04759). To be noted: at 10 µM.
For assay [4], the target named is T2, Inhibitor of nuclear factor kappa-B kinase subunit alpha (Homo sapiens) (UniProt O15111).
T2 sequence (whole entry): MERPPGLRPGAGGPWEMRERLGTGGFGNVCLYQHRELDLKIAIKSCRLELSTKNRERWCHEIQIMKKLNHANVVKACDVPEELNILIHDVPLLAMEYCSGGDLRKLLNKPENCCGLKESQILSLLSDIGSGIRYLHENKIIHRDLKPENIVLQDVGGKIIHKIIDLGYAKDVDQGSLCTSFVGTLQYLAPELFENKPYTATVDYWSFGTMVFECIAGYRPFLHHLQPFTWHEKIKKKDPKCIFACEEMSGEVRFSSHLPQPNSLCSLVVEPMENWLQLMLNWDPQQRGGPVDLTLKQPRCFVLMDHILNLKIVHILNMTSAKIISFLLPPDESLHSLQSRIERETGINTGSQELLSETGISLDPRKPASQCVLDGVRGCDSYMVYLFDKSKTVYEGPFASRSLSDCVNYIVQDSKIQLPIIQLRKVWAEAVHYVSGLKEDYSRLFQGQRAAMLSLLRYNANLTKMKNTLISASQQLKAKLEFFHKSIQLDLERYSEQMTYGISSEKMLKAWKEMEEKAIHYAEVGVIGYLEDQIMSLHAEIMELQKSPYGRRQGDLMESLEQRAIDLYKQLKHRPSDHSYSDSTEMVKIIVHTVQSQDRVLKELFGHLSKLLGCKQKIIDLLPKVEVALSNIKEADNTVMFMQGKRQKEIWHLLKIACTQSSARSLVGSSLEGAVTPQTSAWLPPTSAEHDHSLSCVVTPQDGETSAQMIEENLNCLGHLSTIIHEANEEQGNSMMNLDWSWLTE
The assay can be described thus: Selectivity interaction (KinomeScan (DiscoverX)) EUB0000695a CHUK. The note with it: at 100 nM.

For assay [5], the target named is T3, Mitogen-activated protein kinase 12 (Homo sapiens) (UniProt P53778).
T3 sequence (whole entry): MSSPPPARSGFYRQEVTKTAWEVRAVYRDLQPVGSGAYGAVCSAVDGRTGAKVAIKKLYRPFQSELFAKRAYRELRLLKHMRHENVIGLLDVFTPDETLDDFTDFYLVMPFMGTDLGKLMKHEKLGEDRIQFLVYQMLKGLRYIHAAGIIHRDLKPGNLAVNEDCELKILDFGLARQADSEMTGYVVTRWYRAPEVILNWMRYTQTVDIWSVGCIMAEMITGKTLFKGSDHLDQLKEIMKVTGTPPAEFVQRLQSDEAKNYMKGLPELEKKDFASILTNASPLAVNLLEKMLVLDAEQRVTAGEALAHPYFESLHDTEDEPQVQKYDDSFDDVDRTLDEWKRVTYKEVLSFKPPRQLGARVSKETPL
The assay can be described thus: Selectivity interaction (SelectScreen profiling (Invitrogen)) EUB0000607a MAPK12. The note with it: at 2 µM.

The target in assay [6] is RAC-beta serine/threonine-protein kinase (Homo sapiens) (UniProt P31751). Nature of the assay: Selectivity interaction (KinomeScan (DiscoverX)) EUB0000607a AKT2. To be noted: at 10 µM.
Assay [7] concerns the target ALK tyrosine kinase receptor (Homo sapiens, UniProt Q9UM73). To be noted: at 10 µM.
Assay [8] addresses Tyrosine-protein kinase CSK (Homo sapiens) (UniProt P41240). The assay can be described thus: Selectivity interaction (ActivX KiNativ screen (kinase selectivity in THP-1 cell lysates)) EUB0000639a CSK. The note with it: lysate. Type of assay: subcellular.
Assay [9] concerns the target SRSF protein kinase 2 (Homo sapiens) (UniProt P78362). The assay can be described thus: Selectivity interaction (Upstate Kinase Profiler service (Millipore)) EUB0000056c SRPK2. To be noted: at 1 µM.
Assay [10] deals with Myosin-IIIa (Homo sapiens) (UniProt Q8NEV4). The assay can be described thus: Selectivity interaction (KinomeScan (DiscoverX)) EUB0000618a MYO3A. The note with it: at 10 µM.
Assay [11] addresses Acetylcholinesterase (Homo sapiens) (UniProt P22303). Nature of the assay: Selectivity interaction (Panel of non-epigenetic targets (kinases, GPCRs, ion channels, and transporters, Eurofins) ) EUB0000271b ACHE. To be noted: at 1 µM.
In assay [12] the target is STE20-like serine/threonine-protein kinase (Homo sapiens, UniProt Q9H2G2). Nature of the assay: Selectivity interaction (Kinase panel (DSF assay)) EUB0001558a SLK. A general note: DSF heats the sample and reads unfolding from a dye or from intrinsic fluorescence.

The structures appear in SMILES notation.

Sequence of Tyrosine-protein kinase CSK (Homo sapiens) (P41240 2-450 limits assumed): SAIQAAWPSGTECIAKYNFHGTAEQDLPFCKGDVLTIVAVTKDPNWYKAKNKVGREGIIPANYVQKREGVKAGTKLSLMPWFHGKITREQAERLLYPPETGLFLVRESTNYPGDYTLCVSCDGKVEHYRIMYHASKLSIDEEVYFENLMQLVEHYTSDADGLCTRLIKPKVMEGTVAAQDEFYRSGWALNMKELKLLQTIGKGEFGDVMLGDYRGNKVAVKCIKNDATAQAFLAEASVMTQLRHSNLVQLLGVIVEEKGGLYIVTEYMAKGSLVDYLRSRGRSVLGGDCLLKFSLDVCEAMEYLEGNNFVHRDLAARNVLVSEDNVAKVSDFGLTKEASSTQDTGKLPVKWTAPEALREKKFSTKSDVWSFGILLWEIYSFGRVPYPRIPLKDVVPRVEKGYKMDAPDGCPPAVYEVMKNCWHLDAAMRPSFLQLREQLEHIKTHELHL
Sequence of SRSF protein kinase 2 (Homo sapiens) (P78362 whole entry, looked up): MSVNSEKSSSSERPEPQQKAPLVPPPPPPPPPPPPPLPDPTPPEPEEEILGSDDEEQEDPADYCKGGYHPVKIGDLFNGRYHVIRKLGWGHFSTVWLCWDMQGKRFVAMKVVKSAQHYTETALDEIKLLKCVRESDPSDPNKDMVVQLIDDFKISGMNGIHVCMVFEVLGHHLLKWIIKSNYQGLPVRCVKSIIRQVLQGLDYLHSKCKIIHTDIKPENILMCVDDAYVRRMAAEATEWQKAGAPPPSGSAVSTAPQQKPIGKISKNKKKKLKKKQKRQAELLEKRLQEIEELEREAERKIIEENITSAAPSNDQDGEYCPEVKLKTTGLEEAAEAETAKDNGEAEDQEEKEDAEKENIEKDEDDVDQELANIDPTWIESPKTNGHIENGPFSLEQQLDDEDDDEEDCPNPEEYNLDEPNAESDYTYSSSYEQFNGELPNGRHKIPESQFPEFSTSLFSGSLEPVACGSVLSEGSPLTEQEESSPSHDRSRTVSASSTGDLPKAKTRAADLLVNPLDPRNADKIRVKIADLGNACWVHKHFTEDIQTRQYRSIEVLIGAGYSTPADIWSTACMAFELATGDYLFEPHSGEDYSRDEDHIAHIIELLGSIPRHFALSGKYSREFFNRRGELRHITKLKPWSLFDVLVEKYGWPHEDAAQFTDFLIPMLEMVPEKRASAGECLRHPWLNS
Sequence of Protein kinase C theta type (Q04759 whole entry, looked up): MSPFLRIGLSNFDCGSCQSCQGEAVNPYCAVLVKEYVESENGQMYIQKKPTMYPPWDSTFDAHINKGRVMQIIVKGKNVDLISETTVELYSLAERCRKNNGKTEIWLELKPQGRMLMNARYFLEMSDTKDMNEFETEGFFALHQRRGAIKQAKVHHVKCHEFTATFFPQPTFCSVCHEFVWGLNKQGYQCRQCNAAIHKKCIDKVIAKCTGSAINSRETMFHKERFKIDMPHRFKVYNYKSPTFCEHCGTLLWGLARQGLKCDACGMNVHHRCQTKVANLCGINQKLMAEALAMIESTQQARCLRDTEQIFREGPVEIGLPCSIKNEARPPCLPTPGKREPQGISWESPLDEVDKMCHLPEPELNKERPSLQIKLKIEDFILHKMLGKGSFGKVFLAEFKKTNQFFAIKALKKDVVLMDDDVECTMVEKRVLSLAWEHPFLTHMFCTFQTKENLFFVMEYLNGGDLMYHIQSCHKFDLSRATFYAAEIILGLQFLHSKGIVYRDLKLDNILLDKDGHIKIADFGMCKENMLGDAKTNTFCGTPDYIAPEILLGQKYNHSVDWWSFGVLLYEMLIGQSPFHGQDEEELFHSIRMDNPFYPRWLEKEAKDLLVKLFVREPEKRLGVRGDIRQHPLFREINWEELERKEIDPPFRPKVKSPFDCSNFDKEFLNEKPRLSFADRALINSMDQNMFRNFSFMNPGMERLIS
Sequence of ALK tyrosine kinase receptor (Q9UM73 19-1620 limits assumed): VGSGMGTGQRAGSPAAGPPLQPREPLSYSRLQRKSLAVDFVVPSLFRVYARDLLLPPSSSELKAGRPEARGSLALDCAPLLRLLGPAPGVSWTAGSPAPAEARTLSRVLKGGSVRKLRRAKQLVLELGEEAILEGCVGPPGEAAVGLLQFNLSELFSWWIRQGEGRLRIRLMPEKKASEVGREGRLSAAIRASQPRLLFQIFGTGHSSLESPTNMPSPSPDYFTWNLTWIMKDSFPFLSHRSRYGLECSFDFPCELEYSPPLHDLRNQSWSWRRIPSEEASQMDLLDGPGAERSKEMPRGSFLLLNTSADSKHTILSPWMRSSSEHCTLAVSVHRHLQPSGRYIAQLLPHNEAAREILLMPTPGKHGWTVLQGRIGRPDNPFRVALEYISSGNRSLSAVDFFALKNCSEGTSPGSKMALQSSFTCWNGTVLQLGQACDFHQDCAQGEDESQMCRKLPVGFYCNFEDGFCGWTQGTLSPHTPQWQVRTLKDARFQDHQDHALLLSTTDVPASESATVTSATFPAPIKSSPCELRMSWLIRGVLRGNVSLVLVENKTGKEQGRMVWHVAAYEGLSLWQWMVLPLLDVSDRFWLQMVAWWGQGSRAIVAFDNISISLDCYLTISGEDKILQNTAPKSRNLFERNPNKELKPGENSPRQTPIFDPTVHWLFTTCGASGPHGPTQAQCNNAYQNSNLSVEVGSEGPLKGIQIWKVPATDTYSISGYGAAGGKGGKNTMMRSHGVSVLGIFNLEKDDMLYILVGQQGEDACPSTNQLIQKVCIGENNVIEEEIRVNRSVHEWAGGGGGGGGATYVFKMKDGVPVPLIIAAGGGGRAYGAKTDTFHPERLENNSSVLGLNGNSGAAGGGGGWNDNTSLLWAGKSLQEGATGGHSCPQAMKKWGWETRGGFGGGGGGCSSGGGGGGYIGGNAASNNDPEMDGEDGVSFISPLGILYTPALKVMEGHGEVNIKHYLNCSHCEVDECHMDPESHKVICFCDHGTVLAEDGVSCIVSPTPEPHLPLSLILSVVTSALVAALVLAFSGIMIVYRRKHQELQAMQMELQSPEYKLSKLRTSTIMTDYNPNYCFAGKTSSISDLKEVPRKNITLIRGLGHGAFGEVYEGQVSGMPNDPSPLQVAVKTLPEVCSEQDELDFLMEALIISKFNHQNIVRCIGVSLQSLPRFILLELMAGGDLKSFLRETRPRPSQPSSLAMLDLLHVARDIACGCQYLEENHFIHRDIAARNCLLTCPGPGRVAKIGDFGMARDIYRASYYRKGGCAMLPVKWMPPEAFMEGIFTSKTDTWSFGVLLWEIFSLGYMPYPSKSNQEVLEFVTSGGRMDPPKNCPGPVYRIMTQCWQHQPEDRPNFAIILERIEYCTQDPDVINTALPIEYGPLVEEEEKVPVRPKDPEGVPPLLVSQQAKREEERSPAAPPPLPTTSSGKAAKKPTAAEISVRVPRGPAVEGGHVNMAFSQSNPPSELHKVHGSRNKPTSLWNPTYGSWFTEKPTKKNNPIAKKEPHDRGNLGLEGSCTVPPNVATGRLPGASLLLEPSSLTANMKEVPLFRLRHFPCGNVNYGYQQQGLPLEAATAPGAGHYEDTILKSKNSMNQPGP
Sequence of RAC-beta serine/threonine-protein kinase (Homo sapiens) (P31751 whole entry): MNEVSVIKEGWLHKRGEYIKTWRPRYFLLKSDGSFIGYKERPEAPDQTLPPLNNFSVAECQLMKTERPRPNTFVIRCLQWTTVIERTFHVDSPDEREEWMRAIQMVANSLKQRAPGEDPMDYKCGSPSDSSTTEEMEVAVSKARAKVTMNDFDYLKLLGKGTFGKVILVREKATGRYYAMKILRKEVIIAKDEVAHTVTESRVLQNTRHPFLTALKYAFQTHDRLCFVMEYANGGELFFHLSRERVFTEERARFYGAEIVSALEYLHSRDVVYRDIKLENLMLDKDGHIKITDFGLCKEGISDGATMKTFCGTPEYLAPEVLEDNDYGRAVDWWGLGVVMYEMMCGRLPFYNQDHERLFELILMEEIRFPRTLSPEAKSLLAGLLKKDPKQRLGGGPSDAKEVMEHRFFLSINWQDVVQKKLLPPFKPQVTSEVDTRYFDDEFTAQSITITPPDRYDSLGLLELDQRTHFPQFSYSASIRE
Sequence of Calcium/calmodulin-dependent protein kinase type 1G (Homo sapiens) (Q96NX5 whole entry): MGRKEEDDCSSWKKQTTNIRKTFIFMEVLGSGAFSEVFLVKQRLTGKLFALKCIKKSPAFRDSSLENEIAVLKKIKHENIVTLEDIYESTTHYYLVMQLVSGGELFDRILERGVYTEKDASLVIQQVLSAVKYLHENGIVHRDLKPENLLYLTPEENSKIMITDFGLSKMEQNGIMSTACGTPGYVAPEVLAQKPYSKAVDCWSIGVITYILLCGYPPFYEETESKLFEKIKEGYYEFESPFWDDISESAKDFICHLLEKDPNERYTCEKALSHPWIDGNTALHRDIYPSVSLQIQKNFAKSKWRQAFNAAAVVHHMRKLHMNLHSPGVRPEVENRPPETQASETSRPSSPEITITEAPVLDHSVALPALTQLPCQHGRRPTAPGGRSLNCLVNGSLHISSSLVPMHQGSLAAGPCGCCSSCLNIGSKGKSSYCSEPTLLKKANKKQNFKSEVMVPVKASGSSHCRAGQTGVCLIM
Sequence of Acetylcholinesterase (Homo sapiens) (P22303 whole entry): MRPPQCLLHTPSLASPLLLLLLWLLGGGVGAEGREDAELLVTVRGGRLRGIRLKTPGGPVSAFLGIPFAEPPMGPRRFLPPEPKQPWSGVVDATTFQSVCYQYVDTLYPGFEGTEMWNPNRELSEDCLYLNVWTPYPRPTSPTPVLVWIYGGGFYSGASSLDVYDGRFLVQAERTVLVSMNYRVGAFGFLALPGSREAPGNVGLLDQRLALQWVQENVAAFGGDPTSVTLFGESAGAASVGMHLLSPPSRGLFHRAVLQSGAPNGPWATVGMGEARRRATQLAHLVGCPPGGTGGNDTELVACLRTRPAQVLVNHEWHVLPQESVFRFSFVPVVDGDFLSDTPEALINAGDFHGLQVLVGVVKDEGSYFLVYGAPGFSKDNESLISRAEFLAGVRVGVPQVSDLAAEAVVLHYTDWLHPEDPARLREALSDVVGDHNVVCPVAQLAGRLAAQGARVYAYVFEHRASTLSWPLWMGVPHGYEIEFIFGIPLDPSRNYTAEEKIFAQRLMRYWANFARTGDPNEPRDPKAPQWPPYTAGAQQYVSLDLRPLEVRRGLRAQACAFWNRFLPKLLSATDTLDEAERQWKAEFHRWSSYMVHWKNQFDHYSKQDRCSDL

For the compound `Cn1cc(-n2cnc3c(NCc4nc5cc(Cl)c(Cl)cc5[nH]4)nc(N4CCOCC4)nc32)cn1`, the % of control in assay [1] is -0.991%. As to `N#Cc1cccc(-c2c[nH]c3ncnc(N4CCOCC4)c23)c1`, the % of control in assay [2] came out at 48%.

For the compound `CCN(CC)CCCCNc1ncc2cc(-c3cc(OC)cc(OC)c3)c(NC(=O)NC(C)(C)C)nc2n1`, the % of control in assay [3] was 100%. In the case of `Cc1cc(F)c(C(=O)Nc2cccc(-c3nncn3C(C)C)n2)cc1-n1cnc(C2CC2)c1`, in [4], the % of control was 100%. Turning to `CNC(=O)Nc1ccc(-c2nc(N3CC4CCC(C3)O4)c3cnn(C4CCC5(CC4)OCCO5)c3n2)cc1`, the % of inhibition in [5] is -2%. For the same compound, the % of control in assay [6] was 100%. Regarding `Cc1cc([C@@H](C)Nc2ccccc2C(=O)O)c2nc(N3CCOCC3)cc(=O)n2c1` [AZD-6482], in assay [7], the % of control is 100%.

As for `CC[C@@H]1[C@H](F)C(=O)N[C@@H]1COc1nccc2cc(C(N)=O)c(OC)cc12` [ZIMLOVISERTIB], the % of inhibition in assay [8] (at 0.01 µM) was 4.3%; in assay [8] (at 0.04 µM), -0.3%; in assay [8] (at 0.2 µM) it was -3.8%; in [8] (at 1 µM), 10.3%; in [8] (at 5 µM) it was -8.3%. Consider `Cc1ccc(-c2ccc3c(ccc4sc5c(c43)NC[C@@H](C)NC5=O)n2)cn1`, for which, in assay [9], the % of inhibition came out at 33%.

Consider `O[C@H]1CC[C@H](Nc2ncc3nc(Nc4c(F)cc(F)cc4F)n([C@H]4CCOC4)c3n2)CC1`, for which, in assay [10], the % of control was found to be 100%. For `Cc1cc(C)cc([C@@H]2c3cc(C)ccc3NC(=O)CN2C(=O)c2ccc(Br)s2)c1`, in assay [11], the % of inhibition came to 7%. Compound `CC(C)(O)[C@H](F)CN1Cc2cc(NC(=O)c3cnn4cccnc34)c(N3CCOCC3)cc2C1=O` returned a dTM in assay [12] of 1.7 K.
